Results reported in paper PMC10062662, “Quantitative determination of lurbinectedin, its unbound fraction and its metabolites in human plasma utilizing ultra-performance LC–MS/MS” (PLOS ONE, 2023).
Read-outs that look alike come from different tables or passages of the source.

What was measured:
[1] = set-up: method as in PMID 30090974; details: cited from earlier work; for reduction of total plasma clearance: 443 cancer patients
[2] = assay type: in vitro ADME; details: 20 ng/mL
Experimental: To ensure correct sample collection during the clinical trial procedures, whole-blood (using K3-EDTA as anticoagulant) stability was studied by spiking the blood (lurbinectedin at 20 ng/mL and M4 and M6 at 10 ng/mL). Aliquots of the whole blood were then centrifuged at 4°C for 0, 30, 60, 90 and 120 minutes post equilibration (15 minutes at 37°C) to produce plasma, which was then frozen prior to analysis. This was performed at room temperature (and in an ice bath for lurbinectedin). The derived plasma samples were analyzed in triplicate, and the criterion for acceptance was defined as having a response within ±15% of the zero-minute sample.

[3] = Non-specific binding in the absence of plasma proteins (RED method development); assay type: physicochemical; details: RED devices
Excerpt: To counteract the NSB, Sigmacote®-treated pipette tips were used.

[4] = Plasma protein binding by RED in artificial plasma (PBS with recombinant human AAG and albumin); assay type: in vitro ADME; details: human; for fraction unbound at 8 h, 500 ng/mL: lurbinectedin 500 ng/mL
Excerpt: (§1) RED was considered the best alternative over other methods (e.g., ultrafiltration) to separate lurbinectedin unbound fraction (fu), due to high non-specific binding (NSB) of lurbinectedin leading to adsorption. The RED device consists of a cylinder of dialysis membrane with an 8-kDa molecular weight cut-off held in place by a polytetrafluoroethylene support; the dialysis membrane tube is closed at one end. The RED devices are disposable and used in a reusable polytetrafluoroethylene support plate (holds a maximum of 48 devices). The design of the plate and device allows for PBS to be added in such a way that it can circulate freely around the cylinder of dialysis membrane. In use, spiked plasma (400 μL) is added to the dialysis membrane cylinder part of the RED device, and PBS (600 μL) is added to the other side. The plate, device and volumes used result in a consistent fluid level across both sides of the membrane, preventing mass movement of fluid across the membrane due to hydrostatic pressure.
(§2) Each measurement was performed using three RED devices; the devices were placed in the plate and spiked plasma and PBS were added. The plate was then mixed on an incubating microplate shaker at 100 rpm and 37°C for 8 hours.
(§3) Both the plasma (diluted 1 in 20 with plasma:PBS 1:1, v:v) and PBS (diluted with plasma 1:1, v:v) were assayed in triplicate using the extraction and UPLC-MS/MS method described above. Transfer of the PBS from the incubation plate into an equivalent volume of plasma prior to assay was performed using pipette tips that had been pre-treated with Sigmacote®.
(§4) PPB of lurbinectedin was also studied in artificial plasma (PBS with recombinant human AAG and albumin) at different levels of AAG, albumin and lurbinectedin to estimate the dissociation rate constants for each of these plasma proteins. Several experimental conditions, performed in triplicate, with triplicate analyses, were explored:
(§5) • Condition 1 with lurbinectedin at 500 ng/mL, AAG at 0, 0.25, 0.75, 1, 2 and 4 mg/mL and albumin at 40 mg/mL. • Condition 2 with lurbinectedin at 500 ng/mL, AAG at 1 mg/mL and albumin at 25, 35, 40, 45 and 50 mg/mL. • Condition 3 with lurbinectedin at 50, 75, 100, 250 and 500 ng/mL, AAG at 1 mg/mL and albumin at 40 mg/mL.

[5] = system: recombinant human AAG and albumin; test: as above; assay type: in vitro ADME
Excerpt: as §1, §2, §3, §4, §5

[6] = biological target: T1, recombinant human AAG and albumin (Homo sapiens, UniProt P02768); test: as above; assay type: in vitro ADME; details: without AAG, albumin 40 mg/mL, lurbinectedin 500 ng/mL
T1 construct: purchased Sigma-Aldrich
Excerpt: as §1, §2, §3, §4, §5

[7] = Stability in human K3-EDTA plasma under different test conditions; assay type: in vitro ADME
Experimental: Likewise, a wide range of long-term stability tests reflecting the sort of real-world storage issues that can occur in hospital-based clinical studies (e.g., short-term storage at -20°C before transfer to -80°C, availability of -60°C but not -80°C), was evaluated to ensure plasma samples are analyzed before degradation can occur. Therefore, the following plasma stability tests were performed: room temperature, freeze thaw (one cycle consisted of 2 hours at room temperature followed by freezing for at least 12 hours at -80°C ± 10°C) and long-term (at -20°C ± 5°C, -60°C ± 10°C and -80°C ± 10°C). For each stability test, two concentrations (LQC and HQC) and six replicates per level were analyzed. For acceptance criteria, the precision (%CV) was ≤15% and the bias when compared with the nominal concentration was ±15%. […]

[8] = 4 freeze-thaw cycles, nom. conc. 0.3 ng/mL
[9] = 4 freeze-thaw cycles, nom. conc. 40 ng/mL
[10] = 37°C, 8 hours, nom. conc. 0.3 ng/mL
[11] = 37°C, 8 hours, nom. conc. 40 ng/mL
[12] = -20°C ±5°C, 23 days, nom. conc. 0.3 ng/mL
[13] = -20°C ±5°C, 23 days, nom. conc. 40 ng/mL
[14] = -60°C ±10°C, 245 days, nom. conc. 0.3 ng/mL
[15] = -60°C ±10°C, 245 days, nom. conc. 40 ng/mL
[16] = -80°C ±10°C, 853 days, nom. conc. 0.3 ng/mL
[17] = -80°C ±10°C, 853 days, nom. conc. 40 ng/mL
[18] = Ambient, 16.5 hours, nom. conc. 0.3 ng/mL
[19] = Ambient, 16.5 hours, nom. conc. 40 ng/mL

T1 sequence (P02768 25-609): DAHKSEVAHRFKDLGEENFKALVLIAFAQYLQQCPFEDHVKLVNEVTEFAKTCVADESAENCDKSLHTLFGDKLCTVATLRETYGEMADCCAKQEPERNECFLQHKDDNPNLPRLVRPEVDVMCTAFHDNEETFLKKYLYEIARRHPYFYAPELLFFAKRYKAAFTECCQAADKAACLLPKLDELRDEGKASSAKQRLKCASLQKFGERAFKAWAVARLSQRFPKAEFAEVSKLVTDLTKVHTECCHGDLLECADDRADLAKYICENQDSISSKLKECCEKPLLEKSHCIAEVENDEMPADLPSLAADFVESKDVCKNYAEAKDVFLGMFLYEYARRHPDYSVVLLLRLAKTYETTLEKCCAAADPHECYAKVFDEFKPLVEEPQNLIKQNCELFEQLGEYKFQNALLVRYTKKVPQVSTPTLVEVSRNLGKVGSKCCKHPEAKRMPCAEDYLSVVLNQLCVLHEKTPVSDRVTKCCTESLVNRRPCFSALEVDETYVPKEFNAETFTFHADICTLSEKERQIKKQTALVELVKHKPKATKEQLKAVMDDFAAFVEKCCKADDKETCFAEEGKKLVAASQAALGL

Question: Which results are given for `COc1ccc2[nH]c3c(c2c1)CCN[C@]31CS[C@@H]2c3c(OC(C)=O)c(C)c4c(c3[C@H](COC1=O)N1[C@@H]2[C@H]2c3c(cc(C)c(OC)c3O)C[C@@H]([C@@H]1O)N2C)OCO4` [Lurbinectedin]?
Answer: hepatic extraction ratio [1]: 0.19; reduction of total plasma clearance ([1]; high alpha-1-acid glycoprotein (AAG)): 28%; reduction of total plasma clearance ([1]; low albumin): 20%; stability in human whole K3-EDTA blood [2]: ≥ 120 min; non-specific binding (NSB) [3]: very high levels of NSB; fraction unbound at 8 h, 500 ng/mL ([4]; AAG 0.25 mg/mL, albumin 40 mg/mL, read-out: mean percent unbound): 0.0168; fraction unbound at 8 h, 500 ng/mL ([4]; AAG 0.75 mg/mL, albumin 40 mg/mL, read-out: mean percent unbound): 0.00604; fraction unbound at 8 h, 500 ng/mL ([4]; AAG 1 mg/mL, albumin 40 mg/mL, read-out: mean percent unbound): 0.00473; fraction unbound at 8 h, 500 ng/mL ([4]; AAG 2 mg/mL, albumin 40 mg/mL, read-out: mean percent unbound): 0.00259; fraction unbound at 8 h, 500 ng/mL ([4]; AAG 4 mg/mL, albumin 40 mg/mL, read-out: mean percent unbound): 0.00101; fraction unbound at 8 h, 500 ng/mL ([4]; condition 2: varying albumin 25-50 mg/mL, AAG 1 mg/mL, read-out: fu (percent unbound)): 0.00404; fraction unbound at 8 h ([4]; condition 3: varying lurbinectedin 50-500 ng/mL, AAG 1 mg/mL, albumin 40 mg/mL, read-out: fu (percent unbound)): 0.00393; percent bound ([5]; AAG 0.25 mg/mL, albumin 40 mg/mL, lurbinectedin 500 ng/mL): 98.3%; percent bound ([5]; AAG 0.75 mg/mL, albumin 40 mg/mL, lurbinectedin 500 ng/mL): 99.4%; percent bound ([5]; AAG 1 mg/mL, albumin 40 mg/mL, lurbinectedin 500 ng/mL): 99.5%; percent bound ([5]; AAG 2 mg/mL, albumin 40 mg/mL, lurbinectedin 500 ng/mL): 99.7%; percent bound ([5]; AAG 4 mg/mL, albumin 40 mg/mL, lurbinectedin 500 ng/mL): 99.9%; percent bound ([5]; condition 2: varying albumin 25-50 mg/mL, AAG 1 mg/mL, lurbinectedin 500 ng/mL): 99.6%; percent bound ([5]; condition 3: varying lurbinectedin 50-500 ng/mL, AAG 1 mg/mL, albumin 40 mg/mL): 99.6%; fraction unbound at 8 h, 500 ng/mL ([6]; human, read-out: mean percent unbound): 0.0895; percent bound [6]: 91.1%; Bias [7, 8]: -4%; Measured conc. [7, 8]: 0.289 ng/mL; Bias [7, 9]: -5%; Measured conc. [7, 9]: 38.0 ng/mL; Bias [7, 10]: -2%; Measured conc. [7, 10]: 0.293 ng/mL; Bias [7, 11]: 1%; Measured conc. [7, 11]: 40.2 ng/mL; Bias [7, 12]: -10%; Measured conc. [7, 12]: 0.271 ng/mL; Bias [7, 13]: -9%; Measured conc. [7, 13]: 36.2 ng/mL; Bias [7, 14]: -5%; Measured conc. [7, 14]: 0.285 ng/mL; Bias [7, 15]: -10%; Measured conc. [7, 15]: 36.1 ng/mL; Bias [7, 16]: -10%; Measured conc. [7, 16]: 0.269 ng/mL; Bias [7, 17]: -9%; Measured conc. [7, 17]: 36.3 ng/mL; Bias [7, 18]: -8%; Measured conc. [7, 18]: 0.276 ng/mL; Bias [7, 19]: 3%; Measured conc. [7, 19]: 41.0 ng/mL
